Experimental data taken from ChEMBL document CHEMBL5390254, “Discovery and Optimization of Novel hDHODH Inhibitors for the Treatment of Inflammatory Bowel Disease” (J Med Chem, 2023).
Blank lines part the entries; values can stand above or below the compound they belong to. Calls of active or inactive are those of the source. No cut-off for these calls is given here.

Assays:
Mus musculus [1] = test: Anti-inflammatory activity against DSS-induced acute ulcerative colitis in C57BL/6 mouse model assessed as decrease in IL-17 mRNA expression level in colon at 100 mg/kg, po QD for 6 days by RT-PCR analysis; assay type: functional, organism-based; settings: time 6.0 day
[2] = biological target: Dihydroorotate dehydrogenase (quinone), mitochondrial (Homo sapiens) (UniProt Q02127); settings: dose 10.0 µM
Dihydroorotate dehydrogenase (quinone), mitochondrial (Homo sapiens), sequence (Q02127 whole entry): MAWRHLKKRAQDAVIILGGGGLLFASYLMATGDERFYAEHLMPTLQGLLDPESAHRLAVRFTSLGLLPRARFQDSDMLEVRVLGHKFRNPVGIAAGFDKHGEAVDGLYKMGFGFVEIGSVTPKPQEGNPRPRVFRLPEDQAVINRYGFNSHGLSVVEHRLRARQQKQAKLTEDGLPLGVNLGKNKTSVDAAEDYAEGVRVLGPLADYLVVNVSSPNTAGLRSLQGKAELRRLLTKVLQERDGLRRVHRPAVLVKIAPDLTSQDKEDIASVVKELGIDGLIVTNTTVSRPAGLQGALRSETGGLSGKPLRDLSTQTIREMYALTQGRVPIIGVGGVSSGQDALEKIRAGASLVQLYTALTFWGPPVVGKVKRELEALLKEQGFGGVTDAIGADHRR
Description: Binding affinity to human DHODH assessed as change in melting temperature at 10 uM by thermal shift based DSF assay

[3] = Terminal half life in Han Wistar rat at 5 mg/kg,po and measured upto 24 hrs by LC-MS analysis; assay type: ADME, organism-based; settings: in vivo, read-out: beta t1/2 (converted)
Mus musculus [4] = test: Anti-inflammatory activity against DSS-induced acute ulcerative colitis in C57BL/6 mouse model assessed as decrease in IL-17 production in colon at 100 mg/kg, po QD for 6 days by ELISA; assay type: functional, organism-based; settings: time 6.0 day
Mus musculus [5] = test: Anti-inflammatory activity against DSS-induced acute ulcerative colitis in C57BL/6 mouse model assessed as decrease in IL-6 production in colon at 100 mg/kg, po QD for 6 days by ELISA; assay type: functional, organism-based; settings: time 6.0 day
[6] = Apparent volume of distribution during terminal phase in Sprague-Dawley rat at 15 mg/kg, po and measured upto 48 hrs by LC-MS/MS analysis; assay type: ADME, organism-based; settings: in vivo, read-out: Vz/F
[7] = Oral bioavailability in Han Wistar rat at 5 mg/kg and measured upto 24 hrs by LC-MS analysis; assay type: ADME, organism-based; settings: in vivo
[8] = Apparent oral clearance in Han Wistar rat at 5 mg/kg,po and measured upto 24 hrs by LC-MS analysis; assay type: ADME, organism-based; settings: in vivo
Mus musculus [9] = test: Anti-inflammatory activity against DSS-induced acute ulcerative colitis in C57BL/6 mouse model assessed as decrease in IL-1beta production in colon at 100 mg/kg, po QD for 6 days by ELISA; assay type: functional, organism-based; settings: time 6.0 day
Mus musculus [10] = test: Anti-inflammatory activity against DSS-induced acute ulcerative colitis in C57BL/6 mouse model assessed as decrease in IL-1beta mRNA expression level in colon at 100 mg/kg, po QD for 6 days by RT-PCR analysis; assay type: functional, organism-based; settings: time 6.0 day
Mus musculus [11] = test: Anti-inflammatory activity against DSS-induced acute ulcerative colitis in C57BL/6 mouse model assessed as decrease in IL-6 mRNA expression level in colon at 100 mg/kg, po QD for 6 days by RT-PCR analysis; assay type: functional, organism-based; settings: time 6.0 day
Mus musculus [12] = test: Anti-inflammatory activity against DSS-induced acute ulcerative colitis in C57BL/6 mouse model assessed as decrease in colon length shortening at 100 mg/kg, po QD for 6 days (Rvb= 5.5cm); assay type: functional; settings: time 6 day
Mus musculus [13] = test: Anti-inflammatory activity against DSS-induced acute ulcerative colitis in C57BL/6 mouse model assessed as decrease in colon tissue damage score at 100 mg/kg, po QD for 6 days relative to DSS group; assay type: functional; parameters: scale not given: the % may be the effect or the level left; settings: time 6 day
[14] = Metabolic stability in mouse liver microsomes assessed as intrinsic clearance at 3 uM incubated upto 90 mins in presence of NADPH by LC-MS/MS analysis; assay type: ADME, Microsome; settings: read-out: CLH
[15] = Metabolic stability in mouse liver microsomes assessed as half life at 3 uM incubated upto 90 mins in presence of NADPH by LC-MS/MS analysis; assay type: ADME, Microsome
[16] = Metabolic stability in rat liver microsomes assessed as half life at 3 uM incubated upto 90 mins in presence of NADPH by LC-MS/MS analysis; assay type: ADME, Microsome
[17] = Metabolic stability in human liver microsomes assessed as half life at 3 uM incubated upto 90 mins in presence of NADPH by LC-MS/MS analysis; assay type: ADME, Microsome
[18] = Metabolic stability in human liver microsomes assessed as intrinsic clearance at 3 uM incubated upto 90 mins in presence of NADPH by LC-MS/MS analysis; assay type: ADME, Microsome; settings: read-out: CLH
[19] = Metabolic stability in rat liver microsomes assessed as intrinsic clearance at 3 uM incubated upto 90 mins in presence of NADPH by LC-MS/MS analysis; assay type: ADME, Microsome; settings: read-out: CLH
[20] = 1-octanol/water partition coefficient, logP of the compound at 2 mg by UPLC analysis; assay type: physicochemical

ΔTm [2]: 9.8 °C
half-life [3]: 546 min
Vd/F [6]: 0.02 L/kg
bioavailability [7]: 73.8%
CL/F [8]: 220 mL/min/kg
SMILES: COc1cccc(-c2ccc(NC(=O)C3=C(C(=O)O)CCC3)c(F)c2)c1 [VIDOFLUDIMUS]
Activity (Mus musculus [1]): Active
Activity (Mus musculus [4]): Active
Activity (Mus musculus [5]): Active
Activity (Mus musculus [9]): Active
Activity (Mus musculus [10]): Active
Activity (Mus musculus [11]): Active
Activity (Mus musculus [12]): 6.4 cm
Activity (Mus musculus [13]): 22.73%

CLint scaled at 3 µM [14]: 177 mL/min/kg
half-life at 3 µM [15]: 30.8 min
half-life at 3 µM [16]: 24.5 min
half-life at 3 µM [17]: 38.1 min
CLint scaled at 3 µM [18]: 45.7 mL/min/kg
CLint scaled at 3 µM [19]: 101 mL/min/kg
SMILES: Nc1nc(-c2nn(Cc3ccccc3F)c3ncccc23)ncc1C1CC1

logP [20]: 5.1
SMILES: Nc1nc(-c2cn(Cc3c(F)cccc3F)c3ncccc23)ncc1C1CC1
